Among the data in ChEMBL document CHEMBL2150944, “Antimalarial activity of pyrroloiminoquinones from the Australian marine sponge Zyzzya sp” (J Med Chem, 2012) are Activity and ED50 values, retold here.

In assay [1] the test system is Plasmodium berghei. Nature of the assay: Antimalarial activity against chloroquine-sensitive Plasmodium berghei ANKA infected in Swiss albino mouse assessed as suppression of parasitemia at 8 mg/kg/day, ip measured on day 4 post infection by Giemsa staining relative to control. In kind it is functional. The settings on record: route intraperitoneal.
The test system of assay [2] is Plasmodium berghei. Nature of the assay: Antimalarial activity against chloroquine-sensitive Plasmodium berghei ANKA infected in ip dosed Swiss albino mouse assessed as suppression of parasitemia measured on day 4 post infection by Giemsa staining. It is filed as functional. Particulars: 96 h.

The term ED50 denotes the dose at which the effect has come halfway, by size or by number of responders. As for `CCN(CC)CCCC(C)Nc1ccnc2cc(Cl)ccc12` (configuration not stated) [CHLOROQUINE], in the assay with Plasmodium berghei [1], the Activity is 35%. Further, the ED50 with Plasmodium berghei [2] worked out at 1.9 mg/kg/day.
